Reference: ChEMBL document CHEMBL5385875, “Tumor killing by a dietary curcumin mono-carbonyl analog that works as a selective ROS generator via TrxR inhibition” (Eur J Med Chem, 2023)
Activity calls are given as the source filed them. No cut-off for these calls is given here.

What was measured:
[1] = tested on: NCI-H460; assay: Induction of ferroptosis in human NCI-H460 cells assessed as reduction in GPX4 protein expression at 1 to 2 uM measured after 24 hrs in presence of NAC by immunoblot analysis; format: functional, cell-based; conditions: dose 1-2 µM
[2] = tested on: NCI-H460; assay: Induction of apoptosis in human NCI-H460 cells assessed as reduction of mitochondrial membrane potential incubated for 12 to 36 hrs by JC-1 staining based flow cytometry analysis; format: functional, cell-based; conditions: dose 0.5-2 µM, time 12-36 hrs
[3] = tested on: NCI-H460; assay: Cytotoxicity against human NCI-H460 cells assessed as reduction in cell viability at 0.5 to 1 uM measured after 48 hrs in presence of 3-methuladenine by MTT assay; format: functional, cell-based; conditions: dose 0.5-1 µM
[4] = molecular target: T1, Thioredoxin reductase (Homo sapiens) (UniProt Q16881+Q9NNW7+Q86VQ6); assay: Inhibition of TrxR in human NCI-H460 cells measured after 6 hrs by fluorescence microscopy based analysis; format: cell-based; conditions: dose 0.5-2 µM
[5] = tested on: NCI-H460; assay: Induction of intracellular ROS accumulation in human NCI-H460 cells at 1 to 2 uM measured after 6 hrs in presence of NAC by DCFH-DA dye based fluorescence assay; format: functional, cell-based; conditions: dose 1-2 µM
[6] = tested on: MRC5; assay: Induction of intracellular ROS accumulation in human MRC5 cells at upto 2 uM incubated for 6 hrs by DCFH-DA dye based fluorescence assay; format: functional, cell-based
[7] = tested on: NCI-H460; assay: Cytotoxicity against human NCI-H460 cells assessed as reduction in cell viability at 0.5 to 2 uM incubated for 48 hrs in presence of dithiothreitol by MTT assay; format: functional, cell-based; conditions: dose 0.5-2 µM
[8] = Toxicity in BALB/c nude mouse assessed as effect on spleen at 5 to 15 mg/kg, ip measured every two days for 27 days; format: organism-based; conditions: in vivo, 648 h, dose 5-15 mg/kg, time 27 day
[9] = tested on: NCI-H460; assay: Induction of ferroptosis in human NCI-H460 cells assessed as reduction in GPX4 protein expression measured after 24 hrs by immunoblot analysis; format: functional, cell-based; conditions: dose 1-2 µM
[10] = tested on: MRC5; assay: Induction of ferroptosis in human MRC5 cells assessed as increase in intracellular […] by measuring increase in red fluorescence intensity at 2 uM incubated for 40 hrs by C11-BODIPY staining based microscopy analysis; format: functional, cell-based
[11] = molecular target: T1, Thioredoxin reductase (Homo sapiens); assay: Inhibition of TrxR in human MRC5 cells at 2 uM measured after 6 hrs by fluorescence microscopy based analysis; format: cell-based
[12] = tested on: NCI-H460; assay: Cytotoxicity against human NCI-H460 cells assessed as reduction in cell viability at 0.5 to 1 uM measured after 48 hrs in presence of Z-VAD-fmk by MTT assay; format: functional, cell-based; conditions: dose 0.5-1 µM
[13] = Toxicity in BALB/c nude mouse assessed as effect on animal diet status at 5 to 15 mg/kg, ip measured every two days for 27 days; format: organism-based; conditions: in vivo, 648 h, dose 5-15 mg/kg, time 27 day
[14] = tested on: HT-1080; assay: Cytotoxicity against human HT-1080 cells assessed as reduction in cell viability incubated for 48 hrs by MTT assay; format: functional, cell-based; conditions: HT-1080, 48 h
[15] = tested on: NCI-H460; assay: Antitumor activity against human NCI-H460 cells xenografted in BALB/c nude mouse assessed as downregulation of GPX4 expression at 5 to 15 mg/kg by immunohistochemical staining based analysis; format: functional, organism-based; conditions: dose 5-15 mg/kg
[16] = Inhibition of TrxR protein expression in human NCI-H460 cells at 2 uM measured after 6 hrs by immunoblot analysis relative to control; format: functional
[17] = Toxicity in BALB/c nude mouse assessed as animal death at 5 to 15 mg/kg, ip measured every two days for 27 days; format: organism-based; conditions: in vivo, 648 h, dose 5-15 mg/kg, time 27 day
[18] = tested on: NCI-H460; assay: Downregulation of Bcl-2 expression in human NCI-H460 cells at 1 to 2 uM measured after 48 hrs in presence of NAC by immunoblot analysis; format: functional, cell-based; conditions: dose 1-2 µM
[19] = molecular target: T1, Thioredoxin reductase (Homo sapiens); assay: Inhibition of TrxR in human NCI-H460 cells at 2 uM measured after 6 hrs by DTNB reduction assay relative to control; format: cell-based
[20] = Toxicity in BALB/c nude mouse assessed as effect on lung at 5 to 15 mg/kg, ip measured every two days for 27 days; format: organism-based; conditions: in vivo, 648 h, dose 5-15 mg/kg, time 27 day
[21] = tested on: NCI-H460; assay: Upregulation of caspase-9 activation in human NCI-H460 cells at 1 to 2 uM measured after 48 hrs in presence of NAC by immunoblot analysis; format: functional, cell-based; conditions: dose 1-2 µM
[22] = tested on: NCI-H460; assay: Induction of ROS accumulation in human NCI-H460 cells assessed as reduction in GSH levels by measuring yellow green fluorescence incubated for 9 hrs by fluorescence microscope based analysis; format: functional, cell-based
[23] = tested on: NCI-H460; assay: Cytotoxicity against human NCI-H460 cells assessed as reduction in cell viability at 0.5 to 2 uM incubated for 48 hrs in presence of N-acetylcysteine by MTT assay; format: functional, cell-based; conditions: dose 0.5-2 µM
[24] = tested on: NCI-H460; assay: Induction of ferroptosis in human NCI-H460 cells assessed as increase in intracellular […] by measuring increase in red fluorescence intensity at 0.25 to 0.5 uM incubated for 40 hrs by C11-BODIPY staining based microscopy analysis; format: functional, cell-based; conditions: dose 0.25-0.5 µM
[25] = Cytotoxicity against human MRC5 cells assessed as reduction in cell viability incubated for 48 hrs by MTT assay; format: toxicity, cell-based
[26] = Toxicity in BALB/c nude mouse assessed as effect on liver at 5 to 15 mg/kg, ip measured every two days for 27 days; format: organism-based; conditions: in vivo, 648 h, dose 5-15 mg/kg, time 27 day
[27] = tested on: NCI-H460; assay: Induction of ferroptosis in human NCI-H460 cells assessed as increase in MDA levels at 2 uM measured after 40 hrs in presence of erastin by MDA assay; format: functional, cell-based
[28] = tested on: NCI-H460; assay: Upregulation of caspase-9 activation in human NCI-H460 cells at 1 to 2 uM measured after 48 hrs by immunoblot analysis; format: functional, cell-based; conditions: dose 1-2 µM
[29] = tested on: NCI-H460; assay: Upregulation of Bax expression in human NCI-H460 cells at 1 to 2 uM measured after 48 hrs in presence of NAC by immunoblot analysis; format: functional, cell-based; conditions: dose 1-2 µM
[30] = tested on: NCI-H460; assay: Induction of ferroptosis in human NCI-H460 cells assessed as increase in MDA levels at 2 uM measured after 40 hrs in presence of Fer-1 by MDA assay; format: functional, cell-based
[31] = molecular target: T1, Thioredoxin reductase (Homo sapiens); assay: Inhibition of TrxR in human NCI-H460 cells measured after 6 hrs by DTNB reduction assay relative to control; format: cell-based; conditions: dose 0.5-2 µM
[32] = tested on: NCI-H460; assay: Antitumor activity against human NCI-H460 cells xenografted in BALB/c nude mouse assessed as induction of […] at 5 to 15 mg/kg by TUNEL staining based analysis; format: functional, organism-based; conditions: dose 5-15 mg/kg
[33] = tested on: NCI-H460; assay: Induction of ferroptosis in human NCI-H460 cells assessed as increase in MDA levels at 2 uM measured after 40 hrs in presence of NAC by MDA assay; format: functional, cell-based
[34] = tested on: NCI-H460; assay: Induction of ferroptosis in human NCI-H460 cells assessed as increase in MDA levels at 2 uM measured after 40 hrs in presence of VE by MDA assay; format: functional, cell-based
[35] = Toxicity in BALB/c nude mouse assessed as effect on liver at 5 to 15 mg/kg, ip measured every two days for 27 days by H and E staining based analysis; format: organism-based; conditions: in vivo, 648 h, dose 5-15 mg/kg, time 27 day
[36] = Selectivity index, ratio of IC50 for human MRC5 cells to IC50 for human NCI-H460 cells; format: toxicity; conditions: MRC5 cells versus NCI-H460 cells, read-out: Ratio IC50
[37] = tested on: NCI-H460; assay: Upregulation of caspase-3 activation in human NCI-H460 cells at 1 to 2 uM measured after 48 hrs in presence of NAC by immunoblot analysis; format: functional, cell-based; conditions: dose 1-2 µM

O=C1/C(=C/c2cccc(C(F)(F)F)c2)CNC/C1=C\c1cccc(C(F)(F)F)c1
Activity [1]: inactive | Activity [2]: Dose-Dependent Effect | Activity [3]: inactive | inhibition [4]: Dose-Dependent Effect | Activity [5]: inactive | Activity [6]: inactive | Activity [7]: inactive | Activity [8]: Non-Toxic | Activity [9]: Dose-Dependent Effect | Activity [10]: inactive | inhibition [11]: inactive | Activity [12]: Active | Activity [13]: Non-Toxic | IC50 [14]: 0.93 µM | Activity [15]: Active | inhibition at 2 µM [16]: 69% | Activity [17]: Non-Toxic | Activity [18]: inactive | inhibition [19]: 59% | Activity [20]: Non-Toxic | Activity [21]: inactive | Activity [22]: Dose-Dependent Effect | Activity [23]: inactive | Activity [24]: Active | IC50 at 48 h [25]: 14.1 µM | Activity [26]: Non-Toxic | Activity [27]: Active | Activity [28]: Active | Activity [29]: inactive | Activity [30]: inactive | inhibition [31]: Dose-Dependent Effect | Activity [32]: Active | Activity [33]: inactive | Activity [34]: inactive | Activity [35]: Non-Toxic | selectivity ratio [36]: 32 | Activity [37]: inactive
